From patent US20080045537A1, “Chemical Compounds” (priority 2004, published 2008)
Read-outs that look alike come from different tables or passages of the source.

Key:
[1] = Compound cytotoxicity in the absence of virus addition (CellTiter-Glo); type: cell-based; details: human; non-infected HOS cultures; read-out: Cytotox (pIC50) (converted)
Protocol: Compounds were profiled against two HIV-1 viruses, the M-tropic (CCR5 utilizing) Ba-L strain and the T-tropic (CXCR4 utilizing) IIIB strain. Both viruses were propagated in human peripheral blood lymphocytes. Compounds were tested for there ability to block infection of the HOS cell line (expressing hCXCR4/hCCR5/hCD4/pHIV-LTR-luciferase) by either HIV-1 Ba-L or HIV-1 IIIB. Compound cytotoxicity was also examined in the absence of virus addition.
HOS cells (expressing hCXCR4/hCCR5/hCD4/pHIV-LTR-luciferase) were harvested and diluted in Dulbeccos modified Eagles media supplemented with 2% FCS and non-essential amino acid to a concentration of 60,000 cells/ml. The cells were plated into 96-well plates (100 ul per well) and the plates were placed in a tissue culture incubator (37° C.; 5% CO2/95% air) for a period of 24 h.
Subsequently, 50 ul of the desired drug solution (4 times the final concentration) was added to each well and the plates were returned to the tissue culture incubator (37° C.; 5% CO2/95% air) for 1 h. Following this incubation 50 ul of diluted virus was added to each well (approximately 2 million RLU per well of virus). The plates were returned to the tissue culture incubator (37° C.; 5% CO2/95% air) and were incubated for a further 96 h.
Following this incubation the endpoint for the virally infected cultures was quantified following addition of Steady-Glo Luciferase assay system reagent (Promega, Madison, Wis.). Cell viability or non-infected cultures was measured using a CellTiter-Glo luminescent cell viability assay system (Promega, Madison, Wis.). All luminescent readouts are performed on a Topcount luminescence detector (Packard, Meridien, Conn.).

[2] = system: HIV-1 IIIB (T-tropic, CXCR4 utilizing); assay: HOS HIV-1 infectivity assay; type: cell-based
In short: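 HOS cells expressing hCXCR4/hCCR5/hCD4 with an HIV-LTR-luciferase reporter were seeded in DMEM with 2% FCS and cultured 24 h at 37 °C. Compound was added 1 h before virus (~2 million RLU/well), then incubated 96 h. Infection was read by Steady-Glo luciferase; viability of uninfected cultures by CellTiter-Glo.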

- IC50 ([2]; Human immunodeficiency virus 1, IIIB, as determined by the infectivity assay, strain not stated in Table 2, read-out: Activity Level): < 100 nM
- IC50 ([2]; Human immunodeficiency virus 1, HIV-1 IIIB, HOS cells, 96 h, luciferase readout, read-out: HOS (3B)): 50 nM
SMILES: CC(C)CN1CCN(c2cccc3[nH]c(CN(C)C4CCCc5cccnc54)nc23)CC1 (stereo not drawn) [Example 36, N-methyl-N-({4-[4-(2-methylpropyl)-1-piperazinyl]-1H-benzimidazol-2-yl}methyl)-5,6,7,8-tetrahydro-8-quinolinamine]
- IC50 at 96 h [1]: > 100 µM
